Measured values published in ChEMBL document CHEMBL1122771, “Effects of volume and surface property in hydrolysis by acetylcholinesterase. The trimethyl site” (J Med Chem, 1984).

Tests used:
[1] = Compound was tested for hydrolysis by acetylcholinesterase and the kinetic constant (kcat) which is a first-order rate constant was determined
[2] = system: acetylcholinesterase; test: Compound was tested for hydrolysis by acetylcholinesterase and the kinetic constant, (Km) an apparent dissociation constant, and related to the enzyme's affinity for the substrate was reported; format: ADME
[3] = system: acetylcholinesterase; test: in vitro
Description: Compound was tested for hydrolysis by acetylcholinesterase and the kinetic constant, (Km) an apparent dissociation constant, and related to the enzyme's affinity for the substrate was reported.

| Structure (SMILES) | k cat [1] | Km [2] | Km ([3]; acetylcholinesterase) | Km [3] |
| --- | --- | --- | --- | --- |
| CC(=O)OCCS(C)(=O)=O | 11 s⁻¹ | 6.2 mM |  |  |
| CC(=O)OCCCl | 3400 s⁻¹ |  | 14 mM |  |
| CC(=O)OCCC(C)C | 3400 s⁻¹ |  | 3.6 mM |  |
| CC(=O)OCCBr | 4500 s⁻¹ |  | 7.5 mM |  |
| CC(=O)OCCC(C)(C)C | 66 s⁻¹ | 5.3 mM |  |  |
| CSCCOC(C)=O | 3500 s⁻¹ |  | 15 mM |  |
| CC(=O)OCC[N+](C)(C)[O-] | 4500 s⁻¹ |  | 18 mM |  |
| CC(=O)OCC[S+](C)[O-] (stereo not given) | 3800 s⁻¹ |  | 16 mM |  |
| CC(=O)OCC[Si](C)(C)C | 5700 s⁻¹ |  | 3.5 mM |  |
| CC(=O)OCC[S+](C)C.[Br-] | 7700 s⁻¹ |  | 0.33 mM |  |
| CCCCOC(C)=O [ACETIC ACID BUTYL ESTER] | 36 s⁻¹ |  |  | 13 mM |
| CC(=O)OCC[N+](C)(C)C [ACETYLCHOLINE] | 160 s⁻¹ | 0.33 mM |  |  |
| CCOC(C)=O [ETHYL ACETATE] | 2900 s⁻¹ |  |  |  |
